Results from patent US10988523B2, “Modified lipidated Relaxin B chain peptides and their therapeutic use” (Sanofi, priority 2018, dated 2021).
Read-outs that look alike come from different tables or passages of the source. *1 amine or outer side, *2 acyl side, *3 side chain or, on linkers, in order; H or OH if unused. Where a SMILES comes first, the peptide text is derived from it. Side-chain parts run from the residue outwards. [ ]: non-standard residue; d: D form. The star is where a group is joined. PEG12 = NCCOCCOCCOCCOCCOCCOCCOCCOCCOCCOCCOCCOCCC(=O)O; γGlu = O=C(O)[C@H](CCC(=O)[*:2])N[*:1]; Stearoyl = CCCCCCCCCCCCCCCCCC(=O)*; Palmitoyl = CCCCCCCCCCCCCCCC(=O)*; αMeK = C[C@](N)(CCCCN)C(=O)O; Nle = CCCC[C@H](N)C(=O)O; AEEA = NCCOCCOCC(=O)O; Aib = CC(C)(N)C(=O)O

Legend:
[1] = Pharmacokinetic (PK) determination after i.v. or s.c. administration to rats; format: in vivo, Sprague Dawley rats; conditions: Rat PK; for C0 / half-life: iv; for C0 / half-life / T½: 1 mg/kg i.v.; for C0: extrapolated plasma concentration at t=0, read-out: C0; for half-life: read-out: T½ (converted); for Cmax / Tmax: 3 mg/kg s.c.; for bioavailability: subcutaneous
Method in brief: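 Sprague Dawley rats received peptide in PBS at 1 mg/kg i.v. or 3 mg/kg s.c., dose corrected for salts, solvent and purity. Plasma analysed by LC/MS after protein precipitation; non-compartmental PK, BLQ values set to zero, F% as dose-corrected s.c./i.v. AUC ratio.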

[2] = Stability testing of peptides in rat plasma or blood; format: in vitro ADME; conditions: 37° C.; for Rat plasma stability % remaining T = 0: rat plasma or blood, T = 0 (reference), 5 μM
Method in brief: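 Peptide at 5 µM final was incubated at 37 °C in heparinized rat or human plasma or blood, sampled up to 4 h, and extracted with acetonitrile/1% TFA. HPLC peak areas relative to t0 give % remaining peptide.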

[3] = Sprague Dawley, plasma, 3 mg/kg s.c. vs 1 mg/kg i.v., dose-corrected AUC ratio
[4] = rat plasma, read-out: Rat plasma stability % remaining 1 h
[5] = rat plasma, read-out: Rat plasma stability % remaining 4 h
[6] = whole blood, rat blood, read-out: Rat stability in blood % remaining 1 h
[7] = whole blood, rat blood, read-out: Rat stability in blood % remaining 4 h

CCCCCCCCCCCCCCCC(=O)N[C@@H](CCC(=O)N[C@@H](CCC(=O)N[C@@H](CCC(=O)NCCOCCOCC(=O)NCCOCCOCC(=O)NCCCC[C@H](NC(=O)[C@H](CCCCN)NC(=O)[C@H](CCCNC(=N)N)NC(=O)C(C)(C)NC(=O)[C@H](CO)NC(=O)[C@H](Cc1c[nH]c2ccccc12)NC(=O)[C@@H](NC(=O)[C@H](CO)NC(=O)[C@H](CCCC)NC(=O)CNC(=O)[C@H](CCC(=O)O)NC(=O)C(C)(C)NC(=O)C(C)(C)NC(=O)[C@@H](NC(=O)[C@H](CCC(N)=O)NC(=O)[C@H](C)NC(=O)[C@H](CCCNC(=N)N)NC(=O)[C@@H](NC(=O)[C@H](CCCCN)NC(=O)[C@H](CCC(=O)O)NC(=O)[C@H](CCCNC(=N)N)NC(=O)CNC(=O)[C@H](CCC(=O)O)NC(=O)[C@H](CC(C)C)NC(C)=O)C(C)C)[C@@H](C)CC)[C@@H](C)O)C(N)=O)C(=O)O)C(=O)O)C(=O)O [compound 58] (Ac-LEGREKVRAQI[Aib][Aib]EG[Nle]STWS[Aib]RKK([AEEA-AEEA-γGlu-γGlu-γGlu-Palmitoyl])-NH2)
C0 ([1]; Sprague Dawley): 4020 nM | half-life ([1]; Sprague Dawley, plasma): 7.9 h | Cmax ([1]; Sprague Dawley, plasma, sc): 1340 nM | Tmax ([1]; Sprague Dawley, plasma, sc): 6 h | bioavailability [1, 3]: 55% | Rat plasma stability % remaining T = 0 [2]: 100% | remaining at 1 h, 5 µM [2, 4]: 96% | remaining at 4 h, 5 µM [2, 5]: 101%

CCCCCCCCCCCCCCCC(=O)N[C@@H](CCC(=O)N[C@@H](CCC(=O)N[C@@H](CCC(=O)N[C@@H](CCC(=O)NCCCC[C@H](NC(=O)COCCOCCNC(=O)COCCOCCNC(=O)COCCOCCNC(=O)COCCOCCNC(=O)[C@H](CCCCNC(C)=O)NC(=O)[C@H](C)NC(=O)[C@H](CCCNC(=N)N)NC(=O)[C@](C)(CCCCN)NC(=O)[C@H](CO)NC(=O)[C@H](Cc1ccccc1)NC(=O)[C@@H](NC(=O)[C@H](CO)NC(=O)[C@H](CCC(N)=O)NC(=O)CNC(=O)[C@H](CCC(=O)O)NC(=O)C(C)(C)NC(=O)C(C)(C)NC(=O)[C@@H](NC(=O)[C@H](CCCCNC(C)=O)NC(=O)[C@H](C)NC(=O)[C@H](CCCNC(=N)N)NC(=O)[C@@H](NC(=O)[C@H](CCCCN)NC(=O)[C@H](CCC(=O)O)NC(=O)[C@H](CCCNC(=N)N)NC(=O)CNC(=O)[C@H](CCC(=O)O)NC(=O)[C@H](CC(C)C)NC(C)=O)C(C)C)[C@@H](C)CC)[C@@H](C)O)C(N)=O)C(=O)O)C(=O)O)C(=O)O)C(=O)O [compound 170] (Ac-LEGREKVRAK(Ac)I[Aib][Aib]EGQSTFS[αMeK]RAK(Ac)[AEEA][AEEA][AEEA][AEEA]K([γGlu-γGlu-γGlu-γGlu-Palmitoyl])-NH2)
C0 ([1]; Sprague Dawley): 7760 nM | half-life ([1]; Sprague Dawley, plasma): 10 h | Cmax ([1]; Sprague Dawley, plasma, sc): 780 nM | Tmax ([1]; Sprague Dawley, plasma, sc): 4 h | bioavailability [1, 3]: 87% | Rat plasma stability % remaining T = 0 [2]: 100% | remaining at 1 h, 5 µM [2, 6]: 107% | remaining at 4 h, 5 µM [2, 7]: 99%

CCCCCCCCCCCCCCCCCC(=O)N[C@@H](CCC(=O)N[C@@H](CCC(=O)N[C@@H](CCC(=O)NCCOCCOCC(=O)NCCOCCOCC(=O)NCCOCCOCC(=O)NCCCC[C@H](NC(=O)[C@H](CCCCNC(C)=O)NC(=O)[C@H](CCCCN)NC(=O)[C@H](CCCNC(=N)N)NC(=O)C(C)(C)NC(=O)[C@H](CO)NC(=O)[C@H](Cc1c[nH]c2ccccc12)NC(=O)[C@@H](NC(=O)[C@H](CO)NC(=O)[C@H](CCCC)NC(=O)CNC(=O)[C@H](CCC(=O)O)NC(=O)C(C)(C)NC(=O)C(C)(C)NC(=O)[C@@H](NC(=O)[C@H](CCCCNC(C)=O)NC(=O)[C@H](C)NC(=O)[C@H](CCCNC(=N)N)NC(=O)[C@@H](NC(=O)[C@H](CCCCN)NC(=O)[C@H](CCC(=O)O)NC(=O)[C@H](CCCNC(=N)N)NC(=O)CNC(=O)[C@H](CCC(=O)O)NC(=O)[C@H](CC(C)C)NC(C)=O)C(C)C)[C@@H](C)CC)[C@@H](C)O)C(N)=O)C(=O)O)C(=O)O)C(=O)O [compound 81] (Ac-LEGREKVRAK(Ac)I[Aib][Aib]EG[Nle]STWS[Aib]RKK(Ac)K([AEEA-AEEA-AEEA-γGlu-γGlu-γGlu-Stearoyl])-NH2)
T½ [1]: 3.90 h | Cmax [1]: 1500 nM | F % ([1]; 3 mg/kg s.c. vs 1 mg/kg i.v., dose-corrected AUC ratio): 74% | C0 ([1]; Sprague Dawley): 2600 nM | Tmax ([1]; Sprague Dawley, plasma, sc): 8 h | Rat plasma stability % remaining T = 0 [2]: 100% | remaining at 1 h, 5 µM [2, 4]: 101% | remaining at 4 h, 5 µM [2, 5]: 114%

CCCCCCCCCCCCCCCC(=O)N[C@@H](CCC(=O)N[C@@H](CCC(=O)N[C@@H](CCC(=O)N[C@@H](CCC(=O)NCCCC[C@H](NC(=O)COCCOCCNC(=O)COCCOCCNC(=O)COCCOCCNC(=O)COCCOCCNC(=O)[C@H](CCCCNC(C)=O)NC(=O)[C@H](C)NC(=O)[C@H](CCCNC(=N)N)NC(=O)[C@](C)(CCCCN)NC(=O)[C@H](CO)NC(=O)[C@H](Cc1ccccc1)NC(=O)[C@@H](NC(=O)[C@H](CO)NC(=O)[C@H](CCCC)NC(=O)CNC(=O)[C@H](CCC(=O)O)NC(=O)C(C)(C)NC(=O)C(C)(C)NC(=O)[C@@H](NC(=O)[C@H](CCCCNC(C)=O)NC(=O)[C@H](C)NC(=O)[C@H](CCCNC(=N)N)NC(=O)[C@@H](NC(=O)[C@H](CCCCN)NC(=O)[C@H](CCC(=O)O)NC(=O)[C@H](CCCNC(=N)N)NC(=O)CNC(=O)[C@H](CCC(=O)O)NC(=O)[C@H](CC(C)C)NC(C)=O)C(C)C)[C@@H](C)CC)[C@@H](C)O)C(N)=O)C(=O)O)C(=O)O)C(=O)O)C(=O)O [compound 150] (Ac-LEGREKVRAK(Ac)I[Aib][Aib]EG[Nle]STFS[αMeK]RAK(Ac)[AEEA][AEEA][AEEA][AEEA]K([γGlu-γGlu-γGlu-γGlu-Palmitoyl])-NH2)
C0 ([1]; Sprague Dawley): 3600 nM | half-life ([1]; Sprague Dawley, plasma): 5.7 h | Cmax ([1]; Sprague Dawley, plasma, sc): 2100 nM | Tmax ([1]; Sprague Dawley, plasma, sc): 8 h | bioavailability [1, 3]: 76% | Rat plasma stability % remaining T = 0 [2]: 100% | remaining at 1 h, 5 µM [2, 6]: 86% | remaining at 4 h, 5 µM [2, 7]: 90%

CCCCCCCCCCCCCCCCCC(=O)N[C@@H](CCC(=O)N[C@@H](CCC(=O)N[C@@H](CCC(=O)NCCCC[C@H](NC(=O)CCOCCOCCOCCOCCOCCOCCOCCOCCOCCOCCOCCOCCNC(=O)[C@H](CCCCNC(C)=O)NC(=O)[C@H](CCCCN)NC(=O)[C@H](CCCNC(=N)N)NC(=O)C(C)(C)NC(=O)[C@H](CO)NC(=O)[C@H](Cc1c[nH]c2ccccc12)NC(=O)[C@@H](NC(=O)[C@H](CO)NC(=O)[C@H](CCCC)NC(=O)CNC(=O)[C@H](CCC(=O)O)NC(=O)C(C)(C)NC(=O)C(C)(C)NC(=O)[C@@H](NC(=O)[C@H](CCCCNC(C)=O)NC(=O)[C@H](C)NC(=O)[C@H](CCCNC(=N)N)NC(=O)[C@@H](NC(=O)[C@H](CCCCN)NC(=O)[C@H](CCC(=O)O)NC(=O)[C@H](CCCNC(=N)N)NC(=O)CNC(=O)[C@H](CCC(=O)O)NC(=O)[C@H](CC(C)C)NC(C)=O)C(C)C)[C@@H](C)CC)[C@@H](C)O)C(N)=O)C(=O)O)C(=O)O)C(=O)O [compound 33] (Ac-LEGREKVRAK(Ac)I[Aib][Aib]EG[Nle]STWS[Aib]RKK(Ac)[PEG12]K([γGlu-γGlu-γGlu-Stearoyl])-NH2)
T½ [1]: 4.30 h | C0 ([1]; Sprague Dawley): 4200 nM | Cmax ([1]; Sprague Dawley, plasma, sc): 2500 nM | Tmax ([1]; Sprague Dawley, plasma, sc): 8 h | bioavailability [1, 3]: 60% | Rat plasma stability % remaining T = 0 [2]: 100% | remaining at 1 h, 5 µM [2, 4]: 93% | remaining at 4 h, 5 µM [2, 5]: 80%
